Laboratory results from patent US12336981B2, “Compounds and compositions for the inhibition of NAMPT” (Valo Health, Inc., priority 2010, dated 2025).
pIC50: −log10 of the molar value. Read-outs that look alike come from different tables or passages of the source.

Key:
A2780 cells = assay: In-vitro cell proliferation assay (SRB), A2780 cells; assay type: cell-based; details: Homo sapiens, A2780, 72 h, A2780 cells, 72 hours, read-out: A2780 IC50
Procedure, shortened: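 Cells were plated overnight at 37° C., 5% CO2, then exposed to serially diluted compounds (0.1% DMSO final) for 72 hours. Viable cells were measured by sulforhodamine B staining after TCA fixation, read at 570 nm; media-only background was subtracted before % inhibition was calculated.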

NAMPT = biological target: T1, NAMPT (Homo sapiens, UniProt P43490); assay: Biochemical inhibition assay: NAMPT enzymatic reaction, NMN quantified by mass spectrometry; details: read-out: Biochem IC50
T1 construct: His tag; host or cells: E. coli
T1 sequence (P43490 whole entry): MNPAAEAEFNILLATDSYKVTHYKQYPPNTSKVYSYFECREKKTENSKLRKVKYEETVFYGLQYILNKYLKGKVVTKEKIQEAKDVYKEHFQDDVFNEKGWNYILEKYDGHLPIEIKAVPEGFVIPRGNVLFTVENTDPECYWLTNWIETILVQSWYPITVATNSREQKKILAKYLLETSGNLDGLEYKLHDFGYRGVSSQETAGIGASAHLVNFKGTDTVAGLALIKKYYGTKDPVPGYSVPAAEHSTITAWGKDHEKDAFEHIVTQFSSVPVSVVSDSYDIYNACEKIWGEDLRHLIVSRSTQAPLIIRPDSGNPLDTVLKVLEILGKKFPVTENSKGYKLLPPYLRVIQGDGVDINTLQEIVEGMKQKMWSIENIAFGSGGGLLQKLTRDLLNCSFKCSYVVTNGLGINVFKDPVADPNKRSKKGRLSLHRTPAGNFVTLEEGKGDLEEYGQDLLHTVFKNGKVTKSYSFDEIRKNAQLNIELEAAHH
Procedure, shortened: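 Inhibition of E. coli-expressed His-tagged human NAMPT, measured as NMN formation by mass spectrometry after a 30 min room-temperature reaction containing 1 μM NAM, 100 μM PRPP and 2.5 mM ATP.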

| SMILES | pIC50 (A2780 cells; SRB assay) | pIC50 (NAMPT; NAMPT enzymatic reaction) | pIC50 (A2780 cells; SRB) | pIC50 (NAMPT; NAMPT enzymatic assay) |
| --- | --- | --- | --- | --- |
| O=C(NCc1ccc(S(=O)(=O)N2CCCCC2)cc1)c1ccc2ncsc2c1 [N-{[4-(piperidine-1-sulfonyl)phenyl]methyl}-1,3-benzothiazole-6-carboxamide] | 8.00 | 8.05 |  |  |
| COc1ccc(S(=O)(=O)c2ccc(CNC(=O)c3cc4ccncc4s3)cc2)c(OC)c1 [N-({4-[(2,4-dimethoxybenzene)sulfonyl]phenyl}methyl)thieno[2,3-c]pyridine-2-carboxamide] |  | 8.35 | 8.80 |  |
| CCOc1cc(Cl)ccc1S(=O)(=O)c1ccc(CNC(=O)c2ccc3nccn3c2)cc1 |  | 8.39 | 9.15 |  |
| O=C(NCc1ccc(S(=O)(=O)c2cccc3c2sc2ccccc23)cc1)c1cc2ccncc2o1 |  |  | 7.92 | 8.06 |
| O=C(NCc1ccc(S(=O)(=O)c2cnn(-c3cccc(Cl)c3)c2)cc1)c1ccc2nccn2c1 [N-({4-[1-(3-chlorophenyl)-1H-pyrazole-4-sulfonyl]phenyl}methyl)imidazo[1,2-a]pyridine-6-carboxamide] |  |  | 8.19 | 7.85 |
| Cc1cccc(S(=O)(=O)c2ccc(CNC(=O)c3cc4ccncc4s3)cc2)c1C [N-({4-[(2,3-dimethylbenzene)sulfonyl]phenyl}methyl)thieno[2,3-c]pyridine-2-carboxamide] |  |  | 8.36 | 7.96 |
| CCOCc1ccccc1S(=O)(=O)c1ccc(CNC(=O)c2cnc3nccn3c2)cc1 |  |  | 7.40 | 8.43 |
| CCOc1ccc(Cl)cc1S(=O)(=O)c1ccc(CNC(=O)c2cc3ccncc3s2)cc1 |  | 8.57 | 9.30 |  |
| O=C(NCc1ccc(S(=O)(=O)c2ccccc2CN2CCOCC2)cc1)c1cnc2[nH]ncc2c1 |  |  | 7.33 | 7.16 |
| CCOc1cccc(S(=O)(=O)c2ccc(CNC(=O)c3cnc4[nH]ncc4c3)cc2)c1 |  | 7.84 | 7.72 |  |
| CCOc1ccc(S(=O)(=O)c2ccc(CNC(=O)c3cc4cnccc4[nH]3)cc2)c(C)c1 |  | 8.04 | 7.90 |  |
| O=C(NCc1ccc(S(=O)(=O)c2cc(Cl)cc(Cl)c2)cc1)c1cnc2[nH]ncc2c1 |  | 8.17 | 8.68 |  |
| COc1ccc(C)cc1S(=O)(=O)c1ccc(CNC(=O)c2cc3ccncc3o2)cc1 |  | 7.88 | 8.17 |  |
| COc1ccc(S(=O)(=O)c2ccc(CNC(=O)c3ccc4nccn4c3)cc2)c(OC)c1 [N-({4-[(2,4-dimethoxybenzene)sulfonyl]phenyl}methyl)imidazo[1,2-a]pyridine-6-carboxamide] |  | 7.24 | 7.82 |  |
| CCCCc1ccc(S(=O)(=O)c2ccc(CNC(=O)c3cc4ccncc4o3)cc2)cc1 [N-({4-[(4-butylbenzene)sulfonyl]phenyl}methyl)furo[2,3-c]pyridine-2-carboxamide] |  | 7.74 | 7.58 |  |
| O=C(NCc1ccc(S(=O)(=O)c2ccc(OCC(F)(F)F)c(F)c2)cc1)c1cc2ccncc2o1 |  |  | 7.62 | 8.16 |
| COc1ccc(C(C)=O)cc1S(=O)(=O)c1ccc(CNC(=O)c2ccc3nccn3c2)cc1 [N-({4-[(5-acetyl-2-methoxybenzene)sulfonyl]phenyl}methyl)imidazo[1,2-a]pyridine-6-carboxamide] |  | 7.42 | 7.90 |  |
| O=CNc1ccc(C(=O)NCc2ccc(S(=O)(=O)c3cc(F)cc(F)c3)cc2)cn1 [5-N-({4-[(3,5-difluorobenzene)sulfonyl]phenyl}methyl)pyridine-2,5-diamido] |  | 5.00 to 6.00 | 6.18 |  |
| Cc1ccc(S(=O)(=O)c2ccc(CNC(=O)c3cnc4nccn4c3)cc2)c(F)c1 |  | 8.20 | 7.21 |  |
| O=C(NCc1ccc(S(=O)(=O)c2cc(F)ccc2CO)cc1)c1ccc2nccn2c1 |  |  | 7.19 | 7.98 |
| COc1ccc(S(=O)(=O)c2ccc(CNC(=O)c3ccc4nccn4c3)cc2)nc1 [N-{[4-(5-methoxypyridine-2-sulfonyl)phenyl]methyl}imidazo[1,2-a]pyridine-6-carboxamide] |  |  | 7.76 | 7.64 |
| O=C(NCc1ccc(S(=O)(=O)c2ccccc2)cc1)c1c[nH]c2ccncc12 [N-{[4-(benzenesulfonyl)phenyl]methyl}-1H-pyrrolo[3,2-c]pyridine-3-carboxamide] |  |  | 5.69 | 5.72 |
| Cc1cccc(S(=O)(=O)c2ccc(CNC(=O)c3cc4ccncc4o3)cc2)c1C |  | 7.29 | 8.10 |  |
| O=C(NCc1ccc(S(=O)(=O)c2ccc(C(F)(F)F)cn2)cc1)c1cc2ccncc2o1 [N-({4-[5-(trifluoromethyl)pyridine-2-sulfonyl]phenyl}methyl)furo[2,3-c]pyridine-2-carboxamide] |  |  | 6.00 to 7.00 | 7.43 |
| O=C(NCc1ccc(S(=O)(=O)c2cccc(-c3ccccc3)c2)cc1)c1cc2cnccc2[nH]1 |  | 8.64 | 7.92 |  |

| SMILES | pIC50 (A2780 cells; SRB assay) | pIC50 (NAMPT; NAMPT enzymatic reaction) | pIC50 (A2780 cells; SRB) | pIC50 (NAMPT; NAMPT enzymatic assay) |
| --- | --- | --- | --- | --- |
| O=C(NCc1ccc(S(=O)(=O)c2cc(Cl)cc(C(F)(F)F)c2)cc1)c1cnc2nccn2c1 |  |  | 9.40 | 8.36 |
| CCOCc1ccc(S(=O)(=O)c2ccc(CNC(=O)c3cnc4[nH]ncc4c3)cc2)cc1 [N-[(4-{[4-(ethoxymethyl)benzene]sulfonyl}phenyl)methyl]-1H-pyrazolo[3,4-b]pyridine-5-carboxamide] |  |  | 7.89 | 7.58 |
| O=C(NCc1ccc(S(=O)(=O)c2cccc(OCCN3CCOCC3)c2)cc1)c1cc2ccncc2s1 |  |  | 8.82 | 8.52 |
| O=C(NCc1ccc(S(=O)(=O)c2cccc3c2OCO3)cc1)c1cc2cnccc2[nH]1 [N-{[4-(2H-1,3-benzodioxole-4-sulfonyl)phenyl]methyl}-1H-pyrrolo[3,2-c]pyridine-2-carboxamide] |  |  | 7.93 | 7.69 |
| COc1ccc(C(C)C)cc1S(=O)(=O)c1ccc(CNC(=O)c2cc3cnccc3[nH]2)cc1 [N-[(4-{[2-methoxy-5-(propan-2-yl)benzene]sulfonyl}phenyl)methyl]-1H-pyrrolo[3,2-c]pyridine-2-carboxamide] | 7.92 | 7.21 |  |  |
| O=C(NCc1ccc(S(=O)(=O)c2cccc(N3CCCCC3)c2)cc1)c1cc2cc(O)ccc2[nH]1 |  | 6.00 to 7.00 | 5.00 to 6.00 |  |
| O=C(NCc1ccc(S(=O)(=O)c2cccc(N3CCOCC3)c2)cc1)c1cnc2nccn2c1 |  |  | 7.87 | 8.57 |
| COc1ccc(S(=O)(=O)c2ccc(CNC(=O)c3cnc4nccn4c3)cc2)c(Cl)c1 |  | 8.19 | 7.17 |  |
| CN1CCN(c2ccc(S(=O)(=O)c3ccc(CNC(=O)c4cc5ccncc5s4)cc3)cc2)CC1 |  |  | 9.52 | 9.00 |
| CC(C)c1cccc(S(=O)(=O)c2ccc(CNC(=O)c3cc4ccncc4o3)cc2)c1 |  |  | 8.15 | 8.35 |
| COc1c(F)cccc1S(=O)(=O)c1ccc(CNC(=O)c2ccc3nccn3c2)cc1 [N-({4-[(3-fluoro-2-methoxybenzene)sulfonyl]phenyl}methyl)imidazo[1,2-a]pyridine-6-carboxamide] |  | 7.11 | 7.19 |  |
| Cc1ccc(Cl)c(S(=O)(=O)c2ccc(CNC(=O)c3cc4ccncc4s3)cc2)c1 |  | 8.66 | 8.31 |  |
| Cn1cnc2ccc(S(=O)(=O)c3ccc(CNC(=O)c4cnc5nccn5c4)cc3)cc21 [N-{[4-(1-methyl-1H-1,3-benzodiazole-6-sulfonyl)phenyl]methyl}imidazo[1,2-a]pyrimidine-6-carboxamide] |  |  | 7.47 | 8.40 |
| Cc1cnc(S(=O)(=O)c2ccc(CNC(=O)c3cc4ccncc4o3)cc2)n1C [N-{[4-(1,5-dimethyl-1H-imidazole-2-sulfonyl)phenyl]methyl}furo[2,3-c]pyridine-2-carboxamide] |  |  | 7.18 | 7.24 |
| Cc1cc(C)n(-c2cccc(S(=O)(=O)c3ccc(CNC(=O)c4cc5cnccc5[nH]4)cc3)c2)n1 |  |  | 8.80 | 7.88 |
| CN1CCN(c2ccc(S(=O)(=O)c3ccc(CNC(=O)c4cc5cnccc5[nH]4)cc3)cn2)CC1 [N-({4-[6-(4-methylpiperazin-1-yl)pyridine-3-sulfonyl]phenyl}methyl)-1H-pyrrolo[3,2-c]pyridine-2-carboxamide] |  |  | 9.22 | 8.22 |
| CC(=O)c1cccc(S(=O)(=O)c2ccc(CNC(=O)c3ccc4nccn4c3)cc2)c1 [N-({4-[(3-acetylbenzene)sulfonyl]phenyl}methyl)imidazo[1,2-a]pyridine-6-carboxamide] |  | 7.90 | 8.20 |  |
| O=C(NCc1ccc(S(=O)(=O)N2CCCCC2)cc1)c1ccc2nc[nH]c2c1 [N-{[4-(piperidine-1-sulfonyl)phenyl]methyl}-1H-1,3-benzodiazole-5-carboxamide] | 8.00 | 7.68 |  |  |
| CN1CCN(c2ccc(S(=O)(=O)c3ccc(CNC(=O)c4cc5cnccc5[nH]4)cc3)cc2)CC1 |  |  | 9.10 | 8.52 |
| O=C(NCc1ccc(S(=O)(=O)c2ccc(OCC(F)(F)F)c(F)c2)cc1)c1cnc2[nH]ncc2c1 [N-[(4-{[3-fluoro-4-(2,2,2-trifluoroethoxy)benzene]sulfonyl}phenyl)methyl]-1H-pyrazolo[3,4-b]pyridine-5-carboxamide] |  |  | 7.65 | 7.99 |
| CCN(CC)C(=O)c1cc(Cl)cc(S(=O)(=O)c2ccc(CNC(=O)c3cc4ccncc4s3)cc2)c1 |  |  | 9.10 | 8.64 |
| O=C(NCc1ccc(S(=O)(=O)c2ccc(C3CCCCC3)cc2)cc1)c1ccc2nccn2c1 |  | 7.75 | 7.93 |  |
| O=C(NCc1ccc(S(=O)(=O)c2cc(F)cc(N3CCCC3)c2)cc1)c1ccc2nccn2c1 |  |  | 8.66 | 8.41 |
| Cc1nc(C)c(S(=O)(=O)c2ccc(CNC(=O)c3cnc4[nH]ncc4c3)cc2)s1 [N-{[4-(dimethyl-1,3-thiazole-5-sulfonyl)phenyl]methyl}-1H-pyrazolo[3,4-b]pyridine-5-carboxamide] |  |  | 7.79 | 7.41 |
